Test results published in patent US20260124226A1 (priority 2023, published 2026).
Values joined by “and” are separate entries in the source; they are usually repeats but may differ in a detail not shown here. Identical values can stand only once. Like-named read-outs stand apart in the source and are kept apart here.

What was measured:
[1] = tested on: WEEV; experiment: microbe, parasite or virus in culture; type: cell-based, Western equine encephalitis virus; conditions: Vero76 cells
[2] = tested on: CHIKV; experiment: microbe, parasite or virus in culture; type: cell-based, Chikungunya virus
[3] = tested on: MERS; experiment: microbe, parasite or virus in culture; type: cell-based, MERS coronavirus; conditions: Middle East respiratory syndrome-related coronavirus, Vero 76
[4] = tested on: Poliovirus; experiment: microbe, parasite or virus in culture; type: cell-based; conditions: Vero 76 cells
[5] = tested on: Vero 76 cells; conditions: African green monkey
[6] = female, ICR (CD-1), mouse, in vivo
[7] = Plasma stability; conditions: human plasma, drug 1.00 μM, 37° C.
[8] = Plasma stability; conditions: rat plasma, drug 1.00 μM
[9] = Mouse PK (plasma, IP and oral); conditions: female, ICR (CD-1)

O=c1ccn([C@@H]2O[C@](F)(CO)[C@@H](O)[C@H]2O)c(=O)[nH]1 [EIDD-2749, 4′-fluorouridine]
EC50 ([1]; WEEV strain California): 11.8 µM
EC50 ([1]; Western equine encephalitis virus, Vero 76, WEEV strain California): 9.88 µM
EC50 [2]: 2.05 µM and 3.42 µM
EC50 ([2]; Chikungunya virus, Vero 76): 1.98 µM
EC90 ([2]; Chikungunya virus, Vero 76): 9.12 µM
EC50 [3]: > 380 µM
EC50 ([4]; Enterovirus C, Vero 76, Poliovirus strain Mahoney): 12.2 µM
EC50 ([4]; Poliovirus strain Mahoney): 11.8 µM
CC50 [5]: > 380 µM
AUC-INF ([6]; ip, 10 mg/kg): 19.6 µM·h
Cmax ([6]; ip, 10 mg/kg): 7.7 ± 2.3 µM
t1/2 ([6]; ip, 10 mg/kg): 6.3 h
AUC-INF ([6]; po, 50 mg/kg): 232.3 µM·h
Bioavailability ([6]; po, 50 mg/kg): 236%
Cmax ([6]; po, 50 mg/kg): 35.2 ± 9.7 µM
t1/2 ([6]; po, 50 mg/kg): 8.3 h
AUC-INF ([6]; po, 150 mg/kg): 392.3 µM·h
Bioavailability ([6]; po, 150 mg/kg): 133%
Cmax ([6]; po, 150 mg/kg): 43.6 ± 2.8 µM
t1/2 ([6]; po, 150 mg/kg): 8.5 h
AUC-INF ([6]; po, 500 mg/kg): 755.2 µM·h
Bioavailability ([6]; po, 500 mg/kg): 77.0%
Cmax ([6]; po, 500 mg/kg): 76 ± 15.3 µM
t1/2 ([6]; po, 500 mg/kg): 12.9 h
half-life [7]: 0.433 h
half-life [8]: 0.367 h
concentration at 24 h ([9]; ip, 10 mg/kg): 0.75 ± 0.1 µM
concentration at 24 h ([9]; po, 50 mg/kg): 2.8 ± 1.1 µM
concentration at 24 h ([9]; po, 150 mg/kg): 3.4 ± 1.3 µM
concentration at 24 h ([9]; po, 500 mg/kg): 9.8 ± 4.2 µM
